Results on one substance are retold here after US20030049337A1, “Composition for preventing fructose absorption” (NAGAOKA PERFUMERY CO., LTD, priority 2001, published 2003).

The series has as its system Wistar SPF rats. To be noted: rat, in vivo. On the procedure: The subacute toxicity test by oral administration was conducted using Wistar SPF rats. That is, the rats were divided into the control group (n=7) to which the athrocytosis of the usual feed is carried out, and the eucalyptus group (n=7) to which the athrocytosis of the feed which mixed the eucalyptus extract of 1 volume % with usual feed is carried out, and bred each individually. The rats of these groups were made to carry out free ingestion of feed and the potable water.
The amount of food ingested and the amount of drinking water of rats of these groups were measured every day, and weight change was measured twice per week. The test was continued for five weeks. After the test end, by collecting blood from the heart, rats were made to die and pathological changes, malformation, etc. of each organization, such as internal organs, were confirmed after dissection.

As to eucalyptus extract, the “amount of cholesterol in liver vs control group” value is recorded as “significant difference was not observed”, the “amount of drinking water vs control group” value is given as “significant difference was not accepted”, the “amount of food ingested vs control group” value was “significant difference was not accepted” and the “amount of triglyceride in liver vs control group” value is “significant difference was not observed”. The “weight change vs control group” value is “significant difference was not accepted”.
